Data from patent publication US4048333A (priority 1971, dated 1977).

Assays:
poliovirus 1 [1] = type: cell-based, poliovirus 1 (FL cells); conditions: maximum subtoxic concentration; for Results from one-step virus growth cycle experiments, PFU/ml: control 1.2×10^9; for Results from one-step virus growth cycle experiments, % of inhibition: virus yield vs control
coxsackievirus B1 = type: cell-based, coxsackievirus B1 (FL cells)
echovirus 19 = experiment: one-step virus growth cycle experiments, echovirus 19; type: cell-based, echovirus 19 (FL cells); conditions: maximum subtoxic concentration; for Results from the one-step virus growth cycle experiments, PFU/ml: control 2.6×10^9; for Results from the one-step virus growth cycle experiments, % of inhibition: virus yield vs control
FMD virus type C = type: cell-based, FMD virus type C (calf kidney primary cultures)
FMD virus = tested on: FMD virus; parameters: species or system guinea pigs; conditions: guinea pig, in vivo
[2] = tested on: coxsackievirus B1, B3, A6 and A7; experiment: animal or person; type: in vivo, newborn mice; conditions: for ED50: Enterovirus B, B1, in Mus musculus, sc, read-out: ED50 dose; for antiviral activity on experimental Coxsackie infections (in words): mouse, in vivo; for retardation of the course of the infection: newborn mice, 3-10 LD50, subcutaneous once daily
FMD = tested on: FMD; parameters: species or system newborn mice; conditions: mouse, in vivo
[3] = acute toxicity / selectivity index, species not stated; conditions: in vivo; species and route not given
poliovirus 1 [4] = type: cell-based, poliovirus 1 (FL cells); conditions: FL cells, 48 hour incubation
[5] = acute toxicity for rats (LD50, Pershin method); conditions: rat, in vivo, ip, intraperitoneal
[6] = acute toxicity for mice (LD50, Pershin method); conditions: mouse, in vivo; for LD50: mice, Pershin method
pregnant female rats = experiment: teratogenic effect in pregnant female rats; type: in vivo; conditions: intraperitoneal, daily doses of 100 mg/kg
rats = experiment: subacute toxicity for rats; type: in vivo; conditions: intraperitoneal, 200 mg/kg daily for 30 days

For `Oc1ccc(NC(=S)Nc2ccccc2)cc1` [Example 6], which “Results from one-step virus growth cycle experiments, PFU/ml” value (poliovirus 1 [1]) is on record?
Its value is 3.7×10^8 PFU/ml.

What about the “Results from one-step virus growth cycle experiments, % of inhibition” value (poliovirus 1 [1]) of the same compound?
Its value is 69.17%.

For `Oc1cccc(NC(=S)Nc2ccccc2)c1` [Example 13], which “Results from the one-step virus growth cycle experiments, PFU/ml” value (coxsackievirus B1) is on record?
Its value is ≤ 1×10^6 PFU/ml.

Which results are given for `Oc1cccc(NC(=S)Nc2ccccc2)c1` [Example 19]?
Results from the one-step virus growth cycle experiments, PFU/ml (echovirus 19): 2×10^6 PFU/ml; Results from the one-step virus growth cycle experiments, % of inhibition (echovirus 19): 99.92%

With `O=C(O)c1ccccc1NC(=S)Nc1ccccc1` [N-phenyl-N'-2-carboxyphenylthiourea] as the compound, how does the “Results from one-step virus growth cycle experiments, % of inhibition” value (poliovirus 1 [1]) read?
Its value is 95-99%.

What about the “Results from the one-step virus growth cycle experiments, % of inhibition” value (echovirus 19) of the same compound?
Its value is “above 99%”.

With `CC(=O)c1ccc(NC(=S)Nc2ccccc2)cc1` [N-phenyl-N'-acetylphenylthiourea] as the compound, how does the “Results from one-step virus growth cycle experiments, % of inhibition” value (poliovirus 1 [1]) read?
The value was 95-99%.

Which “Results from the one-step virus growth cycle experiments, PFU/ml” value (coxsackievirus B1) does the source give for `O=C(O)c1ccc(NC(=S)Nc2ccccc2)cc1O` [Example 12] here?
Its value is ≤ 1×10^6 PFU/ml.

With `S=C(Nc1ccccc1)Nc1cnc2ccccc2c1` [Example 1] as the compound, how does the “Results from one-step virus growth cycle experiments, PFU/ml” value (poliovirus 1 [1]) read?
The value was 3.3×10^8 PFU/ml.

What about the “Results from one-step virus growth cycle experiments, % of inhibition” value (poliovirus 1 [1]) of the same compound?
Its value is 67.00%.

Which “Results from one-step virus growth cycle experiments, PFU/ml” value (poliovirus 1 [1]) does the source give for `O=[N+]([O-])c1ccc(O)c(NC(=S)Nc2ccccc2)c1` [Example 7] here?
Its value is 3.5×10^8 PFU/ml.

What about the “Results from one-step virus growth cycle experiments, % of inhibition” value (poliovirus 1 [1]) of the same compound?
The value was 70.83%.

For `O=C(O)c1ccccc1NC(=S)Nc1ccccc1` [Example 17], which “Results from the one-step virus growth cycle experiments, PFU/ml” value (echovirus 19) is on record?
The value was 5×10^6 PFU/ml.

What about the “Results from the one-step virus growth cycle experiments, % of inhibition” value (echovirus 19) of the same compound?
The value was 99.81%.

For `Cc1cccc(NC(=S)Nc2ccccc2)c1` [N-phenyl-N'-3-tolylthiourea], which “Results from one-step virus growth cycle experiments, % of inhibition” value (poliovirus 1 [1]) is on record?
Its value is 95-99%.

Which “Results from the one-step virus growth cycle experiments, % of inhibition” value (FMD virus type C) does the source give for `Oc1ccc(NC(=S)Nc2ccccc2)cc1` [Example 24, N-phenyl-N'-4-hydroxyphenylthiourea] here?
The value was 99.65%.

And the “Results from the one-step virus growth cycle experiments, PFU/ml” value (FMD virus type C)?
The value was 2.5×10^4 PFU/ml.

What about the “reduction of the number of ailing animals compared with the placebo group” value (FMD virus) of the same compound?
Its value is “reduces the number of ailing animals two to three and a half times”.

What does the source list for `Oc1cccc(NC(=S)Nc2ccccc2)c1` [Example 22, N-phenyl-N'-3-hydroxyphenylthiourea]?
Results from the one-step virus growth cycle experiments, % of inhibition (FMD virus type C): 97.92%; Results from the one-step virus growth cycle experiments, PFU/ml (FMD virus type C): 1.5×10^5 PFU/ml; Results from the one-step virus growth cycle experiments, % of inhibition (echovirus 19): above 99%; ED50 [2]: 86.6 mg/kg; antiviral activity on experimental Coxsackie infections (in words) [2]: marked antiviral activity; retardation of the course of the infection [2]: 2 to 3 days; animals in which development of FMD encephalitis is prevented (FMD): 33.3%; LD50 [3]: 1000 mg/kg

Which “Results from the one-step virus growth cycle experiments, PFU/ml” value (echovirus 19) does the source give for `O=[N+]([O-])c1ccc(O)c(NC(=S)Nc2ccccc2)c1` [Example 20, N-phenyl-N'-2-hydroxy-5-nitrophenylthiourea] here?
Its value is 5.9×10^7 PFU/ml.

And the “Results from the one-step virus growth cycle experiments, % of inhibition” value (echovirus 19)?
The value was 97.73%.

With `CC(=O)c1ccc(NC(=S)Nc2ccccc2)cc1` [Example 10] as the compound, how does the “Results from one-step virus growth cycle experiments, PFU/ml” value (poliovirus 1 [1]) read?
Its value is 4.6×10^7 PFU/ml.

What about the “Results from one-step virus growth cycle experiments, % of inhibition” value (poliovirus 1 [1]) of the same compound?
The value was 96.17%.

Which “Results from one-step virus growth cycle experiments, PFU/ml” value (poliovirus 1 [1]) does the source give for `O=C(O)c1ccccc1NC(=S)Nc1ccccc1` [Example 3] here?
Its value is 5.9×10^7 PFU/ml.

And the “Results from one-step virus growth cycle experiments, % of inhibition” value (poliovirus 1 [1])?
Its value is 95.09%.

With `Cc1cccc(NC(=S)Nc2ccccc2)c1` [Example 9] as the compound, how does the “Results from one-step virus growth cycle experiments, PFU/ml” value (poliovirus 1 [1]) read?
The value was 1.4×10^7 PFU/ml.

What about the “Results from one-step virus growth cycle experiments, % of inhibition” value (poliovirus 1 [1]) of the same compound?
Its value is 98.79%.

What does the source list for `S=C(Nc1ccccc1)Nc1ccc(Cl)cc1NC(=S)Nc1ccccc1` [Example 11]?
Results from one-step virus growth cycle experiments, PFU/ml (poliovirus 1 [1]): 4.3×10^8 PFU/ml; Results from one-step virus growth cycle experiments, % of inhibition (poliovirus 1 [1]): 57.00%

Which “Results from one-step virus growth cycle experiments, PFU/ml” value (poliovirus 1 [1]) does the source give for `Oc1cccc(NC(=S)Nc2ccccc2)c1` [Example 5] here?
Its value is 7×10^6 PFU/ml.

What about the “Results from one-step virus growth cycle experiments, % of inhibition” value (poliovirus 1 [1]) of the same compound?
The value was 99.42%.

And the “Results from the gradient plaque-inhibition test” value (poliovirus 1 [4])?
The value was “+ +”.

Which “Results from the one-step virus growth cycle experiments, % of inhibition” value (coxsackievirus B1) does the source give for `O=[N+]([O-])c1ccc(O)c(NC(=S)Nc2ccccc2)c1` [Example 15] here?
The value was 93.87%.

And the “Results from the one-step virus growth cycle experiments, PFU/ml” value (coxsackievirus B1)?
Its value is 4.6×10^7 PFU/ml.

For `O=C(O)CCCNC(=S)Nc1ccccc1` [Example 8, γ-phenylthioureidobutyric acid], which “Results from the one-step virus growth cycle experiments, PFU/ml” value (coxsackievirus B1) is on record?
Its value is ≤ 1×10^6 PFU/ml.

And the “Results from one-step virus growth cycle experiments, PFU/ml” value (poliovirus 1 [1])?
Its value is 1.5×10^7 PFU/ml.

And the “Results from the one-step virus growth cycle experiments, PFU/ml” value (echovirus 19)?
The value was 5× 10^6 PFU/ml.

What about the “Results from the one-step virus growth cycle experiments, % of inhibition” value (echovirus 19; listed as 21) of the same compound?
Its value is 99.81%.

And the “Results from the one-step virus growth cycle experiments, % of inhibition” value (echovirus 19; listed as μ-phenylthioureidobutyric acid)?
Its value is “above 99%”.

With `O=C(O)c1ccc(NC(=S)Nc2ccccc2)cc1O` [Example 18] as the compound, how does the “Results from the one-step virus growth cycle experiments, PFU/ml” value (echovirus 19) read?
Its value is < 1×10^6 PFU/ml.

And the “Results from the one-step virus growth cycle experiments, % of inhibition” value (echovirus 19)?
The value was greater than 99.96%.

With `O=C(O)c1ccc(NC(=S)Nc2ccccc2)cc1O` [Example 4, N-phenyl-N'-4-carboxy-5-hydroxyphenylthiourea] as the compound, how does the LD50 [5] read?
The LD50 was 734 mg/kg.

What about the “Results from one-step virus growth cycle experiments, PFU/ml” value (poliovirus 1 [1]) of the same compound?
The value was < 1×10^6 PFU/ml.

What about the “Results from one-step virus growth cycle experiments, % of inhibition” value (poliovirus 1 [1]) of the same compound?
The value was greater than 99.92%.

And the “Results from the one-step virus growth cycle experiments, % of inhibition” value (echovirus 19)?
The value was “above 99%”.

What about the ED50 [2] of the same compound?
Its ED50 is 43.3 mg/kg.

What about the “antiviral activity on experimental Coxsackie infections (in words)” value [2] of the same compound?
The value was “marked antiviral activity”.

And the “retardation of the course of the infection” value [2]?
Its value is 2 to 3 days.

And the LD50 ([6]; ip, intraperitoneal)?
Its LD50 is 550 mg/kg.

What about the LD50 ([6]; sc, subcutaneous) of the same compound?
Its LD50 is greater than 1000 mg/kg.

And the selectivity ratio ([6]; LD50 /ED50, read-out: selectivity index (LD50 /ED50))?
Its selectivity ratio is no less than 23.

And the teratogenic effect (pregnant female rats)?
The teratogenic effect was “No teratogenic effect”.

And the “subacute toxicity: changes in general state, behaviour, weight, blood pattern” value (rats)?
Its value is “no changes in the general state and behaviour of the animals, or in their weight, the blood pattern, etc. were observed”.

For `Oc1ccc(NC(=S)Nc2ccccc2)cc1` [Example 14], which “Results from the one-step virus growth cycle experiments, PFU/ml” value (coxsackievirus B1) is on record?
Its value is < 1×10^6 PFU/ml.

With `S=C(Nc1ccccc1)Nc1cccc2cccnc12` [Example 2] as the compound, how does the “Results from one-step virus growth cycle experiments, PFU/ml” value (poliovirus 1 [1]) read?
Its value is 5.2×10^8 PFU/ml.

And the “Results from one-step virus growth cycle experiments, % of inhibition” value (poliovirus 1 [1])?
The value was 48.00%.
